# According to PMC4960487, “Discovery and characterization of novel small-molecule CXCR4 receptor agonists and antagonists” (Scientific Reports, 2016):
# Target: CXCR4 (Homo sapiens, UniProt P61073)
# Assay: fura-2 calcium mobilization in C8161 melanoma cells, antagonism of SDF-1
# Format: cell-based
# Chain of CXCR4 (P61073 whole entry): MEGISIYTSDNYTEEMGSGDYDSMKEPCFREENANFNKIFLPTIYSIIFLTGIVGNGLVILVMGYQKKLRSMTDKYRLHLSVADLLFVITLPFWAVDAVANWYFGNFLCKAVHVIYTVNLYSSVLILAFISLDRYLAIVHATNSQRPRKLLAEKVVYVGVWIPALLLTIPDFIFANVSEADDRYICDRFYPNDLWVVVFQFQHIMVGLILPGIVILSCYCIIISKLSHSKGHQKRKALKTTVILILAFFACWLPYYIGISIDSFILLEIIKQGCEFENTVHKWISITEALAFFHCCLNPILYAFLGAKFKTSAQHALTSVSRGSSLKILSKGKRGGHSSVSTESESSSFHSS
row,IC50,Substance
1,300 nM,NUCC-388
2,1000 nM,NUCC-392
3,1000 nM,NUCC-54120
